Data on 1 molecule can be found in PMC5218480 (PLoS ONE, 2017).

This experiment has as its system MV-4-11 cells. Briefly: Gene expression microarray analysis (Affymetrix PrimeView) and GSEA. Format: cell-based, human. Details: RFU PODN (11730768_x_at) / Fold change /veh PODN (11730768_x_at) / RFU LINC00158 (11744669_a_at) / Fold change /veh LINC00158 (11744669_a_at) / RFU DUSP10 (11751237_a_at) / Fold change /veh DUSP10 (11751237_a_at) / RFU ID3 (11757404_x_at) / Fold change /veh ID3 (11757404_x_at) / RFU PLEKHG5 (11737974_s_at) / Fold change /veh PLEKHG5 (11737974_s_at) / RFU LRRC4B (11730491_at) / Fold change /veh LRRC4B (11730491_at) / RFU GIMAP4 (11747438_a_at) / Fold change /veh GIMAP4 (11747438_a_at) / RFU KRT8 (11758183_x_at) / Fold change /veh KRT8 (11758183_x_at) / RFU CNN1 (11734310_a_at) / Fold change /veh CNN1 (11734310_a_at) / RFU VPS37D (11726825_at) / Fold change /veh VPS37D (11726825_at) / RFU C10orf10 (11716522_x_at) / Fold change /veh C10orf10 (11716522_x_at) / RFU KIR2DL2 /// KIR2DL4 /// KIR2DL5A /// KIR2DL5B /// KIR2DS1 /// KIR2DS2 /// KIR2DS3 /// KIR2DS4 /// KIR3DL3 /// KIR3DL3 /// KIR3DS1 (11738374_at) / Fold change /veh KIR2DL2 /// KIR2DL4 /// KIR2DL5A /// KIR2DL5B /// KIR2DS1 /// KIR2DS2 /// KIR2DS3 /// KIR2DS4 /// KIR3DL3 /// KIR3DL3 /// KIR3DS1 (11738374_at) / RFU C1QL1 (11718748_at) / Fold change /veh C1QL1 (11718748_at) / RFU TMPRSS4 (11747572_a_at) / Fold change /veh TMPRSS4 (11747572_a_at) / RFU HAMP (11756126_x_at) / Fold change /veh HAMP (11756126_x_at) / RFU RNFT2 (11725882_a_at) / Fold change /veh RNFT2 (11725882_a_at) / RFU NR4A2 (11747474_a_at) / Fold change /veh NR4A2 (11747474_a_at) / RFU ABCC12 (11746883_a_at) / Fold change /veh ABCC12 (11746883_a_at) / RFU TMEM136 (11760407_x_at) / Fold change /veh TMEM136 (11760407_x_at) / RFU CLDN22 /// WWC2 (11732394_at) / Fold change /veh CLDN22 /// WWC2 (11732394_at) / RFU HLA-DPB1 (11760878_x_at) / Fold change /veh HLA-DPB1 (11760878_x_at) / RFU SPINT1 (11716480_a_at) / Fold change /veh SPINT1 (11716480_a_at) / RFU GAP43 (11754022_s_at) / Fold change /veh GAP43 (11754022_s_at) / RFU A4GNT (11735810_at) / Fold change /veh A4GNT (11735810_at) / RFU PRB3 (11715151_x_at) / Fold change /veh PRB3 (11715151_x_at) / RFU TUBB4B (11761932_at) / Fold change /veh TUBB4B (11761932_at) / RFU CAPN14 (11732068_a_at) / Fold change /veh CAPN14 (11732068_a_at) / RFU TMCC2 (11721928_a_at) / Fold change /veh TMCC2 (11721928_a_at) / RFU IRGQ (11745062_a_at) / Fold change /veh IRGQ (11745062_a_at) / RFU FAM174B (11720279_a_at) / Fold change /veh FAM174B (11720279_a_at) / RFU TMPRSS4 (11748680_a_at) / Fold change /veh TMPRSS4 (11748680_a_at) / RFU FAM212B (11763350_a_at) / Fold change /veh FAM212B (11763350_a_at) / RFU PLEKHG5 (11743358_a_at) / Fold change /veh PLEKHG5 (11743358_a_at) / RFU ZSCAN30 (11745921_a_at) / Fold change /veh ZSCAN30 (11745921_a_at) / RFU CMKLR1 (11741424_a_at) / Fold change /veh CMKLR1 (11741424_a_at) / RFU LOC101060620 /// MAPK8IP1 (11723275_at) / Fold change /veh LOC101060620 /// MAPK8IP1 (11723275_at) / RFU SPTSSB (11747773_x_at) / Fold change /veh SPTSSB (11747773_x_at) / RFU PRSS12 (11739890_at) / Fold change /veh PRSS12 (11739890_at) / RFU BIN1 (11741810_x_at) / Fold change /veh BIN1 (11741810_x_at) / RFU WNT11 (11732464_a_at) / Fold change /veh WNT11 (11732464_a_at) / RFU C10orf10 (11716521_a_at) / Fold change /veh C10orf10 (11716521_a_at) / RFU C5orf56 (11738089_at) / Fold change /veh C5orf56 (11738089_at) / RFU CYB561 (11721691_x_at) / Fold change /veh CYB561 (11721691_x_at) / RFU ANKRD19P (11752326_a_at) / Fold change /veh ANKRD19P (11752326_a_at) / RFU OR2T12 /// OR2T33 /// OR2T8 (11738714_s_at) / Fold change /veh OR2T12 /// OR2T33 /// OR2T8 (11738714_s_at) / RFU VCAN (11748164_a_at) / Fold change /veh VCAN (11748164_a_at) / RFU JSRP1 (11732532_at) / Fold change /veh JSRP1 (11732532_at) / RFU KRTAP10-11 (11738290_x_at) / Fold change /veh KRTAP10-11 (11738290_x_at) / RFU MYO3A (11730013_a_at) / Fold change /veh MYO3A (11730013_a_at) / RFU EBF3 (11725865_a_at) / Fold change /veh EBF3 (11725865_a_at) / RFU CAMK2N1 (11719241_x_at) / Fold change /veh CAMK2N1 (11719241_x_at) / RFU C5orf56 (11738088_a_at) / Fold change /veh C5orf56 (11738088_a_at) / RFU OLFML3 (11715873_a_at) / Fold change /veh OLFML3 (11715873_a_at) / RFU LOC100653217 /// NTM (11731650_a_at) / Fold change /veh LOC100653217 /// NTM (11731650_a_at) / RFU MAPK11 (11762145_a_at) / Fold change /veh MAPK11 (11762145_a_at) / RFU FIZ1 (11724087_x_at) / Fold change /veh FIZ1 (11724087_x_at) / RFU OASL (11726364_x_at) / Fold change /veh OASL (11726364_x_at) / RFU SOX15 (11748057_x_at) / Fold change /veh SOX15 (11748057_x_at) / RFU CD79A (11719716_a_at) / Fold change /veh CD79A (11719716_a_at) / RFU HIST1H1D (11736915_at) / Fold change /veh HIST1H1D (11736915_at) / RFU CASKIN2 (11723855_a_at) / Fold change /veh CASKIN2 (11723855_a_at) / RFU LOC730098 (11760151_x_at) / Fold change /veh LOC730098 (11760151_x_at) / RFU OR4N2 (11742367_at) / Fold change /veh OR4N2 (11742367_at) / RFU PRRT2 (11749266_a_at) / Fold change /veh PRRT2 (11749266_a_at) / RFU SNX32 (11753110_a_at) / Fold change /veh SNX32 (11753110_a_at) / RFU CDHR5 (11726645_a_at) / Fold change /veh CDHR5 (11726645_a_at) / RFU RCAN1 (11760418_a_at) / Fold change /veh RCAN1 (11760418_a_at) / RFU FAM167A (11723789_a_at) / Fold change /veh FAM167A (11723789_a_at) / RFU FAM26E (11764081_at) / Fold change /veh FAM26E (11764081_at) / RFU ISYNA1 (11749810_s_at) / Fold change /veh ISYNA1 (11749810_s_at) / RFU ACY1 (11761880_at) / Fold change /veh ACY1 (11761880_at) / RFU 11764098_at / Fold change /veh 11764098_at / RFU SAMD14 (11745864_x_at) / Fold change /veh SAMD14 (11745864_x_at) / RFU NPB (11741838_a_at) / Fold change /veh NPB (11741838_a_at) / RFU TMPRSS6 (11731388_a_at) / Fold change /veh TMPRSS6 (11731388_a_at) / RFU KRTAP10-2 (11738614_at) / Fold change /veh KRTAP10-2 (11738614_at) / RFU ARHGAP8 /// PRR5-ARHGAP8 (11727945_x_at) / Fold change /veh ARHGAP8 /// PRR5-ARHGAP8 (11727945_x_at) / RFU KRTAP5-7 /// NADSYN1 (11734609_at) / Fold change /veh KRTAP5-7 /// NADSYN1 (11734609_at) / RFU RASL12 (11751679_a_at) / Fold change /veh RASL12 (11751679_a_at) / RFU CDKN2B (11736163_a_at) / Fold change /veh CDKN2B (11736163_a_at) / RFU PRF1 (11729649_at) / Fold change /veh PRF1 (11729649_at) / RFU, ZNF638 /// ZNF638-IT1 / Fold change vs veh, ZNF638 /// ZNF638-IT1 / RFU, PANK3 / Fold change vs veh, PANK3 / RFU, SH3YL1 / Fold change vs veh, SH3YL1 / RFU, ZEB2 / Fold change vs veh, ZEB2 / RFU, NRIP1 / Fold change vs veh, NRIP1 / RFU, PTTG1IP / Fold change vs veh, PTTG1IP / RFU, CAPN2 / Fold change vs veh, CAPN2 / RFU, MED14 / Fold change vs veh, MED14 / RFU, SNORA58 / Fold change vs veh, SNORA58 / RFU, C1orf63 / Fold change vs veh, C1orf63 / RFU, LRRFIP1 / Fold change vs veh, LRRFIP1 / RFU, NDUFAF7 / Fold change vs veh, NDUFAF7 / RFU, SLC12A2 / Fold change vs veh, SLC12A2 / RFU, IBTK / Fold change vs veh, IBTK / RFU, ESF1 / Fold change vs veh, ESF1 / Fold change vs veh, TMEM50B / RFU, TAOK1 / Fold change vs veh, TAOK1 / RFU, ACBD3 / Fold change vs veh, ACBD3 / RFU, TMA16 / Fold change vs veh, TMA16 / RFU, RWDD3 / Fold change vs veh, RWDD3 / RFU, BCAT1 / Fold change vs veh, BCAT1 / RFU, EDEM3 / Fold change vs veh, EDEM3 / RFU, TMEM33 / Fold change vs veh, TMEM33 / RFU, WDR75 / Fold change vs veh, WDR75 / RFU, AHCTF1 / Fold change vs veh, AHCTF1 / RFU, TFRC / Fold change vs veh, TFRC / RFU, ZDHHC17 / Fold change vs veh, ZDHHC17 / RFU, NOM1 / Fold change vs veh, NOM1 / RFU, ARL8B / Fold change vs veh, ARL8B / RFU, ZBTB11 / Fold change vs veh, ZBTB11 / RFU, TAMM41 / Fold change vs veh, TAMM41 / RFU, KIAA1704 /// LOC100996395 / Fold change vs veh, KIAA1704 /// LOC100996395 / RFU, ING1 / Fold change vs veh, ING1 / RFU, TRMT61B / Fold change vs veh, TRMT61B / RFU, FUBP3 / Fold change vs veh, FUBP3 / RFU, TP53 / Fold change vs veh, TP53 / RFU, TNKS2 / Fold change vs veh, TNKS2 / RFU, ZFP14 / Fold change vs veh, ZFP14 / RFU, ACTR2 / Fold change vs veh, ACTR2 / RFU, PPP3R1 / Fold change vs veh, PPP3R1 / RFU, PIK3R1 / Fold change vs veh, PIK3R1 / RFU, HNRNPA1 / Fold change vs veh, HNRNPA1 / RFU, RNF170 / Fold change vs veh, RNF170 / RFU, ZNF28 / Fold change vs veh, ZNF28 / RFU, RNGTT / Fold change vs veh, RNGTT / RFU, OGT / Fold change vs veh, OGT / RFU, BRD1 / Fold change vs veh, BRD1 / RFU, MARS / Fold change vs veh, MARS / RFU, ZNF655 / Fold change vs veh, ZNF655 / RFU, FAHD1 / Fold change vs veh, FAHD1 / RFU, BDP1 / Fold change vs veh, BDP1 / RFU, LRRCC1 / Fold change vs veh, LRRCC1 / RFU, ARID1A / Fold change vs veh, ARID1A / RFU, ZNF146 / Fold change vs veh, ZNF146 / RFU, ZNF330 / Fold change vs veh, ZNF330 / RFU, GPN3 / Fold change vs veh, GPN3 / RFU, C9orf123 / Fold change vs veh, C9orf123 / RFU, N4BP2L2 / Fold change vs veh, N4BP2L2 / RFU, ARFIP1 / Fold change vs veh, ARFIP1 / RFU, FAM179B / Fold change vs veh, FAM179B / RFU, BCL10 / Fold change vs veh, BCL10 / RFU, UHRF1BP1L / Fold change vs veh, UHRF1BP1L / RFU, BET1 / Fold change vs veh, BET1 / RFU, CNOT2 / Fold change vs veh, CNOT2 / RFU, ZNF268 / Fold change vs veh, ZNF268 / Fold change vs veh, ZNF507 / RFU, DGCR2 / Fold change vs veh, DGCR2 / RFU, WDSUB1 / Fold change vs veh, WDSUB1 / Fold change vs veh, HSP90B1 /// MIR3652 / RFU, ADSS / Fold change vs veh, ADSS / RFU, GK / Fold change vs veh, GK / RFU, ZNF148 / Fold change vs veh, ZNF148 / RFU, TAF9 / Fold change vs veh, TAF9 / RFU, SLC1A5 / Fold change vs veh, SLC1A5 / RFU, SLMO2 / Fold change vs veh, SLMO2 / RFU, ABCC4 / Fold change vs veh, ABCC4 / RFU, LOC101060439 /// RAP1B / Fold change vs veh, LOC101060439 /// RAP1B / RFU, RFX7 / Fold change vs veh, RFX7 / RFU, GTPBP10 / Fold change vs veh, GTPBP10 / RFU, CNEP1R1 / Fold change vs veh, CNEP1R1 / RFU, BIVM-ERCC5 /// ERCC5 / Fold change vs veh, BIVM-ERCC5 /// ERCC5 / RFU, ILF3 / Fold change vs veh, ILF3 / RFU 11762660_at / Fold change /veh 11762660_at / RFU VCAN (11757783_s_at) / Fold change /veh VCAN (11757783_s_at) / RFU DDX43 (11728927_at) / Fold change /veh DDX43 (11728927_at) / RFU KRT8 (11758188_x_at) / Fold change /veh KRT8 (11758188_x_at) / RFU NKD1 (11759106_at) / Fold change /veh NKD1 (11759106_at) / RFU SRD5A1 (11742802_a_at) / Fold change /veh SRD5A1 (11742802_a_at) / RFU TPSAB1 /// TPSB2 (11721975_s_at) / Fold change /veh TPSAB1 /// TPSB2 (11721975_s_at) / RFU GSTM3 (11746129_a_at) / Fold change /veh GSTM3 (11746129_a_at) / RFU IL23R (11737362_x_at) / Fold change /veh IL23R (11737362_x_at) / RFU TMEM51 (11727254_a_at) / Fold change /veh TMEM51 (11727254_a_at) / RFU PIWIL2 (11732686_x_at) / Fold change /veh PIWIL2 (11732686_x_at) / RFU ORM1 (11744905_x_at) / Fold change /veh ORM1 (11744905_x_at) / RFU CCDC152 (11743942_at) / Fold change /veh CCDC152 (11743942_at) / RFU ECM1 (11717891_a_at) / Fold change /veh ECM1 (11717891_a_at) / RFU IL23R (11748794_a_at) / Fold change /veh IL23R (11748794_a_at) / RFU TNFAIP8L3 (11732012_x_at) / Fold change /veh TNFAIP8L3 (11732012_x_at) / RFU MBOAT4 (11741988_at) / Fold change /veh MBOAT4 (11741988_at) / RFU 11764193_at / Fold change /veh 11764193_at / RFU TMEM53 (11763286_at) / Fold change /veh TMEM53 (11763286_at) / RFU MAGEB2 (11727129_at) / Fold change /veh MAGEB2 (11727129_at) / RFU TMEM200A (11744735_a_at) / Fold change /veh TMEM200A (11744735_a_at) / RFU CCDC152 (11751479_a_at) / Fold change /veh CCDC152 (11751479_a_at) / RFU FAM211A (11726209_a_at) / Fold change /veh FAM211A (11726209_a_at) / RFU RGS16 (11746705_a_at) / Fold change /veh RGS16 (11746705_a_at) / RFU VCAN (11755009_s_at) / Fold change /veh VCAN (11755009_s_at) / RFU RHOB (11743442_s_at) / Fold change /veh RHOB (11743442_s_at) / RFU RGS16 (11720943_a_at) / Fold change /veh RGS16 (11720943_a_at) / RFU RGS16 (11720944_at) / Fold change /veh RGS16 (11720944_at) / RFU, VPS4B / Fold change vs veh, VPS4B / RFU, CREB1 / Fold change vs veh, CREB1 / RFU, DNAJC13 / Fold change vs veh, DNAJC13 / RFU, GNAQ / Fold change vs veh, GNAQ / RFU, CDK5R1 / Fold change vs veh, CDK5R1 / RFU, ZRANB3 / Fold change vs veh, ZRANB3 / RFU, CUL4A / Fold change vs veh, CUL4A / RFU, CCNY / Fold change vs veh, CCNY / RFU, UFL1 / Fold change vs veh, UFL1 / RFU, COG3 / Fold change vs veh, COG3 / RFU, DIAPH2 / Fold change vs veh, DIAPH2 / RFU, SKA2 / Fold change vs veh, SKA2 / RFU, AFF3 / Fold change vs veh, AFF3 / RFU, LMF1 / Fold change vs veh, LMF1 / RFU, IPO11 / Fold change vs veh, IPO11 / RFU, DFFB / Fold change vs veh, DFFB / RFU, FOXP1 / Fold change vs veh, FOXP1 / RFU, CARD8 / Fold change vs veh, CARD8 / RFU, STRN3 / Fold change vs veh, STRN3 / RFU, ADK / Fold change vs veh, ADK / RFU, RASSF2 / Fold change vs veh, RASSF2 / RFU, WIPF1 / Fold change vs veh, WIPF1 / RFU, LARP1B / Fold change vs veh, LARP1B / RFU, RASA1 / Fold change vs veh, RASA1 / RFU, RB1 / Fold change vs veh, RB1 / RFU, PPFIA1 / Fold change vs veh, PPFIA1 / RFU, MAT2A / Fold change vs veh, MAT2A / RFU, CCT5 / Fold change vs veh, CCT5 / RFU, WDR92 / Fold change vs veh, WDR92 / RFU, CUX1 / Fold change vs veh, CUX1 / RFU, TTC7A / Fold change vs veh, TTC7A / RFU, TMEM135 / Fold change vs veh, TMEM135 / RFU, DEPTOR / Fold change vs veh, DEPTOR / RFU, CPM / Fold change vs veh, CPM / RFU, DNAJB6 / Fold change vs veh, DNAJB6 / RFU, CACNA2D3 / Fold change vs veh, CACNA2D3 / RFU, DTX4 / Fold change vs veh, DTX4 / RFU, TFCP2 / Fold change vs veh, TFCP2 / RFU, GMCL1 /// GMCL1P1 / Fold change vs veh, GMCL1 /// GMCL1P1 / RFU, AEBP2 / Fold change vs veh, AEBP2 / RFU, SNHG1 /// SNORD22 /// SNORD25 /// SNORD26 /// SNORD27 /// SNORD28 /// SNORD29 /// SNORD31 / Fold change vs veh, SNHG1 /// SNORD22 /// SNORD25 /// SNORD26 /// SNORD27 /// SNORD28 /// SNORD29 /// SNORD31 / Fold change (Aza/veh), C12orf56 (ProbeSet 11735607_a_at) / Fold change (ACY-1035/veh), C12orf56 (ProbeSet 11735607_a_at) / Fold change (Aza/veh), FGFR1OP (ProbeSet 11751329_s_at) / Fold change (ACY-1035/veh), FGFR1OP (ProbeSet 11751329_s_at) / Fold change (Aza/veh), VPS36 (ProbeSet 11739960_a_at) / Fold change (ACY-1035/veh), VPS36 (ProbeSet 11739960_a_at) / RFU SYPL1 (11715823_x_at) / Fold change /veh SYPL1 (11715823_x_at) / RFU IGFBP7 (11715501_s_at) / Fold change /veh IGFBP7 (11715501_s_at) / RFU REEP3 (11722064_at) / Fold change /veh REEP3 (11722064_at) / RFU IGLL1 (11728026_x_at) / Fold change /veh IGLL1 (11728026_x_at): dose or concentration left out as unconfirmed. As to conditions: MV-4-11 cells, 48 hours.

Each structure is given as a SMILES string.

As for `Nc1ncn([C@@H]2O[C@H](CO)[C@@H](O)[C@H]2O)c(=O)n1` [azacitidine], the “Fold change /veh TPSAB1 /// TPSB2 (11721975_s_at)” value worked out at 1.21.
